Article PMC3820767, “Turning Defense into Offense: Defensin Mimetics as Novel Antibiotics Targeting Lipid II” (PLoS Pathogens, 2013)
In brackets after ≈: the same amount, converted by molar mass. Read-outs that look alike come from different tables or passages of the source.

Experiments:
[1] = Surface Plasmon Resonance binding to immobilized 3-Lipid II; conditions: SPR; for Kd: immobilized 3-Lipid II; for Binding on Lipid II?: Table S3, initial determination at 10 µM
Protocol: Surface Plasmon Resonance binding experiments were carried out on a BIAcore T100 system (BIAcore Inc., Piscataway, NY) at 25°C. The assay buffer was 10 mM HEPES, 150 mM NaCl, 0.05% surfactant P20, pH 7.4 (±3 mM EDTA) supplemented with 10% DMSO. […] For initial determination of binding, defensin mimetics were introduced into the flow-cells (30 µl/min) in the running buffer at 10 µM. Resonance signals were corrected for nonspecific binding by subtracting the background of the control flow-cell. After each analysis, the sensor chip surfaces were regenerated with 50 mM NaOH for 30 s at a flow rate 100 µl/min, and equilibrated with the buffer prior to next injection. For binding kinetics studies, binding isotherms were analyzed with manufacturer-supplied software for BIAcore T100.

[2] = test system: Escherichia coli ATCC 25922; assay: Antibacterial killing, 96-well turbidimetric (modified vCC) assay; format: cell-based; conditions: for Bacterial Killing E. coli: concentration resulting in 100% killing after 30 min exposure, modified vCC assay; for active against E.coli (IC100%): Table S3, concentration at which 100% killing occurred, no bacterial regrowth, No = not active
Protocol: (§1) The antibacterial activity of defensin mimetics against Staphylococcus aureus ATCC 29213 and Escherichia coli 25922 was carried out in a 96-well turbidimetric assay essentially as described previously with the following modifications: bacteria were exposed for 30 min to compounds in 10 mM phosphate buffer containing 5% DMSO prior to addition of 2× Muller-Hinton medium. Bacterial growth was monitored for 12 hours and data were analyzed as described. Determination of MICs was performed by Micromyx, LLC (Kalamazoo, Michigan) according to CLSI standards.

[3] = test system: Staphylococcus aureus ATCC 29213; assay: as above; format: cell-based; conditions: for active against S.aureus (IC100%): Table S3, concentration at which 100% killing occurred, no bacterial regrowth, No = not active; for Bacterial Killing S. aureus: concentration resulting in 100% killing after 30 min exposure, modified vCC assay
Protocol: as §1

Caco-2 = assay: Cytotoxicity by MTT assay; format: cell-based, human
Jurkat = assay: Cytotoxicity by MTT assay; format: cell-based, human
[4] = test system: Streptococcus pneumonia (PRSP) MMX884; assay: Broth microdilution susceptibility testing (CLSI); format: cell-based, Streptococcus pneumoniae
Protocol: as §1

[5] = test system: Enterococcus faecalis (VRE) MMX848; assay: Broth microdilution susceptibility testing (CLSI); format: cell-based
Protocol: as §1

[6] = test system: Enterococcus faecalis MMX101-ATCC 29212; assay: Broth microdilution susceptibility testing (CLSI); format: cell-based
Protocol: as §1

[7] = test system: Escherichia coli MMX102-ATCC 25922; assay: Broth microdilution susceptibility testing (CLSI); format: cell-based
Protocol: as §1

[8] = test system: Pseudomonas aeruginosa MMX103-ATCC 27853; assay: Broth microdilution susceptibility testing (CLSI); format: cell-based
Protocol: as §1

[9] = test system: Staphylococcus aureus (MRSA) MMX757; assay: Broth microdilution susceptibility testing (CLSI); format: cell-based
Protocol: as §1

[10] = test system: Staphylococcus aureus MMX100-ATCC 29213; assay: Broth microdilution susceptibility testing (CLSI); format: cell-based
Protocol: as §1

[11] = test system: Streptococcus pneumoniae MMX1195-ATCC 49619; assay: Broth microdilution susceptibility testing (CLSI); format: cell-based
Protocol: as §1

Oc1ccccc1Oc1c(F)c(F)c(-c2c(F)c(F)c(Oc3ccccc3O)c(F)c2F)c(F)c1F [Compound 1611-0203, 2-{2,3,5,6-tetrafluoro-4-[2,3,5,6-tetrafluoro-4-(2-hydroxyphenoxy)phenyl]phenoxy}phenol]
Kd [1]: 59.6 µM | Bacterial Killing E. coli [2]: >500 µM | active against S.aureus (IC100%) [3]: 3,9 µM | Bacterial Killing S. aureus [3]: 3.9 µM | IC50 (Caco-2; concentration resulting in 50% cell survival, MTT, 24 h, read-out: Cytotoxicity (C50%) Caco-2): 4.2 µM | IC50 (Jurkat; concentration resulting in 50% cell survival, MTT, 4 h, read-out: Cytotoxicity (C50%) Jurkat): 63.4 µM | MIC Streptococcus pneumonia (PRSP) 884-NA [4]: >16 µg/mL | MIC Enterococcus faecalis (VRE) 848-NA [5]: 1 µg/mL (≈ 1.94 µM) | MIC Enterococcus faecalis 101-29212 [6]: 1 µg/mL (≈ 1.94 µM) | MIC Escherichia coli 102-25922 [7]: >4 µg/mL | MIC Pseudomonas aeruginosa 103-27853 [8]: >4 µg/mL | MIC Staphylococcus aureus (MRSA) 757-NA [9]: 2 µg/mL (≈ 3.89 µM) | MIC Staphylococcus aureus 100-29213 [10]: 2 µg/mL (≈ 3.89 µM) | MIC Streptococcus pneumoniae 1195-49619 [11]: >16 µg/mL

CC[n+]1c(/C=C2C=C(/C=C/N(C)c3ccccc3)CC(C)(C)C/2)sc2ccccc21 [Compound 4090-1978, 2-{[(1E)-5,5-dimethyl-3-[(E)-2-[methyl(phenyl)amino]ethenyl]cyclohex-2-en-1-ylidene]methyl}-3-ethyl-1,3-benzothiazol-3-ium]
Binding on Lipid II? [1]: No | active against E.coli (IC100%) [2]: 62,5 µM | Bacterial Killing E. coli [2]: 62.5 µM | active against S.aureus (IC100%) [3]: 15,625 µM | Bacterial Killing S. aureus [3]: 15.6 µM | IC50 (Caco-2): 16.7 µM | IC50 (Jurkat): 87.3 µM | MIC Streptococcus pneumonia (PRSP) 884-NA [4]: >8 µg/mL | MIC Enterococcus faecalis (VRE) 848-NA [5]: 16 µg/mL | MIC Enterococcus faecalis 101-29212 [6]: 16 µg/mL | MIC Escherichia coli 102-25922 [7]: 64 µg/mL | MIC Pseudomonas aeruginosa 103-27853 [8]: >64 µg/mL | MIC Staphylococcus aureus (MRSA) 757-NA [9]: 2 µg/mL | MIC Staphylococcus aureus 100-29213 [10]: 2 µg/mL | MIC Streptococcus pneumoniae 1195-49619 [11]: >8 µg/mL

CN(C)c1ccc(/C=C/c2cc(C(C)(C)C)[o+]c(C(C)(C)C)c2)cc1 [Compound 1493-0289, 2,6-di-tert-butyl-4-[(E)-2-[4-(dimethylamino)phenyl]ethenyl]-1$l^4-pyran-1-ylium]
Binding on Lipid II? [1]: Yes | Kd [1]: 4.26 µM | active against E.coli (IC100%) [2]: 125 µM | Bacterial Killing E. coli [2]: 125 µM | active against S.aureus (IC100%) [3]: 3,9 µM | Bacterial Killing S. aureus [3]: 3.9 µM | IC50 (Caco-2): 6.8 µM | IC50 (Jurkat): 41.7 µM | MIC Streptococcus pneumonia (PRSP) 884-NA [4]: 16 µg/mL | MIC Enterococcus faecalis (VRE) 848-NA [5]: 4 µg/mL | MIC Enterococcus faecalis 101-29212 [6]: 2 µg/mL | MIC Escherichia coli 102-25922 [7]: >8 µg/mL | MIC Pseudomonas aeruginosa 103-27853 [8]: >8 µg/mL | MIC Staphylococcus aureus (MRSA) 757-NA [9]: 2 µg/mL | MIC Staphylococcus aureus 100-29213 [10]: 1 µg/mL | MIC Streptococcus pneumoniae 1195-49619 [11]: 16 µg/mL

CC(=O)NC[C@H]1CN(c2ccc(N3CCOCC3)c(F)c2)C(=O)O1 [Linezolid, reference compound]
MIC ([4]; Streptococcus pneumoniae, PRSP, read-out: MIC Streptococcus pneumonia (PRSP) 884-NA): 2 µg/mL (≈ 5.93 µM) | MIC ([5]; Enterococcus faecalis, VRE, read-out: MIC Enterococcus faecalis (VRE) 848-NA): 2 µg/mL (≈ 5.93 µM) | MIC ([6]; Enterococcus faecalis, ATCC29212, read-out: MIC Enterococcus faecalis 101-29212): 2 µg/mL (≈ 5.93 µM) | MIC ([7]; Escherichia coli, ATCC25922, read-out: MIC Escherichia coli 102-25922): > 64 µg/mL | MIC ([8]; Pseudomonas aeruginosa, ATCC27853, read-out: MIC Pseudomonas aeruginosa 103-27853): > 64 µg/mL | MIC ([9]; Staphylococcus aureus, MRSA, read-out: MIC Staphylococcus aureus (MRSA) 757-NA): 4 µg/mL (≈ 11.9 µM) | MIC ([10]; Staphylococcus aureus, ATCC29213, read-out: MIC Staphylococcus aureus 100-29213): 4 µg/mL (≈ 11.9 µM) | MIC ([11]; Streptococcus pneumoniae, ATCC49619, read-out: MIC Streptococcus pneumoniae 1195-49619): 2 µg/mL (≈ 5.93 µM)

Cc1cc(C2c3ccccc3-c3ccccc32)cc(C)c1O [610995/1, 4-(9H-fluoren-9-yl)-2,6-dimethylphenol]
Binding on Lipid II? [1]: Yes | active against E.coli (IC100%) [2]: No | active against S.aureus (IC100%) [3]: 125 µM | IC50 (Caco-2): 9.2 µM

CCN1/C(=C\C=C\c2sc3c4ccccc4[se]c3[n+]2CC)Sc2c1[se]c1ccccc21 [STK368153, 3-ethyl-2-[(1E,3E)-3-(3-ethyl[1]benzoselenopheno[2,3-d][1,3]thiazol-2(3H)-ylidene)prop-1-en-1-yl][1]benzoselenopheno[2,3-d][1,3]thiazol-3-ium]
Binding on Lipid II? [1]: Yes | active against E.coli (IC100%) [2]: 7,8 µM | active against S.aureus (IC100%) [3]: 7,8 µM | IC50 (Caco-2): 9.6 µM

CN1CCC(N(Cc2ccccc2)C(=O)CCc2ccc3c(c2)n(C)c(=O)n3C)CC1 [SYN22879441, N-Benzyl-3-(1,3-dimethyl-2-oxo-2,3-dihydro-1H-benzoimidazol-5-yl)-N-(1-methyl-piperidin-4-yl)-propionamide]
Binding on Lipid II? [1]: No | active against E.coli (IC100%) [2]: No | active against S.aureus (IC100%) [3]: No | cytotoxic for Caco II (C50% survival) (Caco-2): No

CCCN1CCC(NCc2cccc(C(F)(F)F)c2)CC1 [Compound 5452876, 1-propyl-N-[3-(trifluoromethyl)benzyl]-4-piperidinamine]
Binding on Lipid II? [1]: No | active against E.coli (IC100%) [2]: No | active against S.aureus (IC100%) [3]: No | cytotoxic for Caco II (C50% survival) (Caco-2): No

CCn1c2ccccc2c2cc(N/C=C(\C#N)c3nc(-c4ccc(C)cc4C)cs3)ccc21 [STK537076, (2E)-2-[4-(2,4-dimethylphenyl)-1,3-thiazol-2-yl]-3-[(9-ethyl-9H-carbazol-3-yl)amino]prop-2-enenitrile]
Binding on Lipid II? [1]: No | active against E.coli (IC100%) [2]: No | active against S.aureus (IC100%) [3]: No | IC50 (Caco-2): 240 µM

CCN(CC)c1ccc(CN2CCN(c3cccc(C(F)(F)F)c3)CC2)cc1 [Compound 5427129, N,N-diethyl-4-({4-[3-(trifluoromethyl)phenyl]-1-piperazinyl}methyl)aniline]
Binding on Lipid II? [1]: Yes | active against E.coli (IC100%) [2]: No | active against S.aureus (IC100%) [3]: (No) | IC50 (Caco-2): 192 µM

FC(F)(F)c1cccc(N2CCN(Cc3ccc4c(c3)Cc3ccccc3-4)CC2)c1 [Compound 5418391, 1-(9H-fluoren-2-ylmethyl)-4-[3-(trifluoromethyl)phenyl]piperazine]
Binding on Lipid II? [1]: No | active against E.coli (IC100%) [2]: No | active against S.aureus (IC100%) [3]: No | IC50 (Caco-2): 159 µM

CN(C)c1ccc(C(c2ccc(N(C)C)cc2)C(O)c2ccccc2)cc1 (centres unmarked) [35487/2, 2,2-bis(4-(dimethylamino)phenyl)-1-phenylethanol]
Binding on Lipid II? [1]: No | active against E.coli (IC100%) [2]: No | active against S.aureus (IC100%) [3]: No | cytotoxic for Caco II (C50% survival) (Caco-2): No

CCN1/C(=C/C=C/C=C/C2=CC(=C/c3sc4ccccc4[n+]3CC)/CC(C)(C)C2)Sc2ccccc21 [STK792971, 3-ethyl-2-[(E)-{3-[(1E,3E,5Z)-5-(3-ethyl-1,3-benzothiazol-2(3H)-ylidene)penta-1,3-dien-1-yl]-5,5-dimethylcyclohex-2-en-1-ylidene}methyl]-1,3-benzothiazol-3-ium]
Binding on Lipid II? [1]: No | active against E.coli (IC100%) [2]: No | active against S.aureus (IC100%) [3]: 62,5 µM | cytotoxic for Caco II (C50% survival) (Caco-2): No
